1 compound from patent US20240108634A1, “COMPOSITIONS AND METHODS FOR INHIBITING YAP” (The United States Government as represented by the …, priority 2021, published 2024) can be followed below.

This assay concerns the target T1, full-length human YAP1 (Homo sapiens, UniProt P46937).
T1 construct: purified recombinant HA-tagged full-length human YAP1; made in house
Kind of assay: Inhibitor-coupled bead binding of recombinant HA-tagged YAP. The settings on record: immunoblot of bound HA-YAP. The procedure: FIGS. 1A-G show the identification of a YAP1-TEAD1 binding interface inhibitor. […] The Gal4 DBD was fused to residues 50-171 of human YAP1 and the Gal4 AD was fused to residues 194-411 of human TEAD1. These fusions were expressed in yeast containing reporters harboring Gal4 upstream activating sequences (UAS). […] Yeast expressing either p53-DBD and SV40 large T antigen-AD fusions or YAP1-DBD and TEAD1-AD fusions were plated on selective media. Compounds were pinned onto the plate surfaces by robotic transfer and subsequently examined for halo formation (indicated by red circles). […] Pull-down products were analyzed by SDS-PAGE and silver staining. […] Raw binding sensorgrams obtained at each concentration were fitted to a 1:1 binding model and Kon, Koff and KD were calculated by simultaneous non-linear regression analyses.
Protein and mRNA analyses, immunoprecipitation, in vitro bead-coupled inhibitor binding assays and HPLC analyses. […] Antigen-antibody complexes were detected using appropriate horseradish peroxidase-conjugated secondary antibodies (GE Healthcare) and enhanced chemiluminescence (Amersham ECL Prime). […] For quantitative RT-PCR, extraction of RNA was performed using Trizol® (Life Technologies). Total RNA was then quantified and integrity assessed using an Agilent 2100 Bioanalyzer (Agilent Technology). […]
For orientation: In western blotting, separated proteins are transferred to a membrane and probed.

T1 sequence (P46937 whole entry): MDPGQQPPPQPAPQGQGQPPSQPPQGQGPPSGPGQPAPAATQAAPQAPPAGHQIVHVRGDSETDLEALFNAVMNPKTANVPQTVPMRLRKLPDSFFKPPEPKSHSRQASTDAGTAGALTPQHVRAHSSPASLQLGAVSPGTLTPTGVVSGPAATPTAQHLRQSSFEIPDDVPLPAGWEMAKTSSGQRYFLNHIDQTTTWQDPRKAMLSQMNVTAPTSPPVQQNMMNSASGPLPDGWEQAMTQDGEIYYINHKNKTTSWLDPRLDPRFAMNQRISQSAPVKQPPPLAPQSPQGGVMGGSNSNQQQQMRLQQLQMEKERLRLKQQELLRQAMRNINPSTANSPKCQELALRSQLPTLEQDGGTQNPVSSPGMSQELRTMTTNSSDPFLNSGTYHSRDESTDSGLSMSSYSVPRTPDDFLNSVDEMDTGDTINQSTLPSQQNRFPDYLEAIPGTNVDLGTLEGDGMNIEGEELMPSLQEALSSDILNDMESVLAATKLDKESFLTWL

As to `COc1ccc(-c2cc(-c3ccccc3)nc3c2CC(=O)Nc2ccccc2-3)cc1OC` [NSC682769], the “Binding of YAP to compound-coupled beads” value is listed as “associated strongly”.
